The record followed here is publication PMC3863970 (Nature Communications, 2013).

One assay has as its system rSH/1:AH/1-NA virus. Also on record: species or system influenza A(H7N9) virus. The settings on record: in vivo.
The test system of another assay is rSH/1 virus. The arrangement: species or system influenza A(H7N9) virus. Conditions: in vivo.

“Also recorded” adds a separate entry of the source.

Regarding `CCOC(=O)C1=C[C@@H](OC(CC)CC)[C@H](NC(C)=O)[C@@H](N)C1` [Oseltamivir, oseltamivir], in the assay with rSH/1:AH/1-NA virus (po), the “reduction in viral lung titres” value came to 1 log. In the assay on rSH/1 virus (po), the “effect on viral lung titres” value is “no effect; also recorded: does not suppress H7N9 virus replication”.
On to `CC(=O)N[C@H]1[C@H]([C@H](O)[C@H](O)CO)OC(C(=O)O)=C[C@@H]1N=C(N)N` [Zanamivir, zanamivir], for which the “viral lung titres compared with mice treated with vehicle only” value in the assay on rSH/1:AH/1-NA virus and in the assay with rSH/1 virus was “significantly reduced” in each case.
